Several values for one entry are separate records, joined by “and”; a condition that tells them apart may be missing. Identical values can stand only once. Inconclusive results and toxic doses are left out.
Tested on: CD2F1 mice, L1210 leukemia ip, survival T/C
Assay: NCI In Vivo Anticancer Drug Screen. Data for tumor model L1210 Leukemia (intraperitoneal) in CD2F1 (CDF1) mice
Settings: higher = longer survival
Procedure, shortened: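 Implant tumor; dose compound or vehicle; measure endpoint in both groups; report treated divided by control.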

[1] = endpoint: mean survival time, dose: 100.0 mg/kg/injection, schedule: Q01DX009 (ip), vehicle: saline with Tween-80
[2] = endpoint: mean survival time, dose: 200.0 mg/kg/injection, schedule: Q01DX009 (ip), vehicle: saline with Tween-80
[3] = endpoint: mean survival time, dose: 400.0 mg/kg/injection, schedule: Q01DX009 (ip), vehicle: saline with Tween-80
[4] = endpoint: mean survival time, dose: 100.0 mg/kg/injection, schedule: Q04DX003 (ip), vehicle: saline with Tween-80
[5] = endpoint: mean survival time, dose: 200.0 mg/kg/injection, schedule: Q04DX003 (ip), vehicle: saline with Tween-80
[6] = endpoint: mean survival time, dose: 400.0 mg/kg/injection, schedule: Q04DX003 (ip), vehicle: saline with Tween-80
[7] = endpoint: mean survival time, dose: 100.0 mg/kg/injection, schedule: Q01DX001 (ip), vehicle: saline
[8] = endpoint: mean survival time, dose: 200.0 mg/kg/injection, schedule: Q01DX001 (ip), vehicle: saline
[9] = endpoint: mean survival time, dose: 100.0 mg/kg/injection, schedule: Q01DX001 (ip), vehicle: saline with Tween-80
[10] = endpoint: mean survival time, dose: 100.0 mg/kg/injection, schedule: Q04DX002 (ip), vehicle: saline with Tween-80
[11] = endpoint: mean survival time, dose: 200.0 mg/kg/injection, schedule: Q01DX001 (ip), vehicle: saline with Tween-80
[12] = endpoint: mean survival time, dose: 200.0 mg/kg/injection, schedule: Q04DX002 (ip), vehicle: saline with Tween-80
[13] = endpoint: mean survival time, dose: 400.0 mg/kg/injection, schedule: Q01DX001 (ip), vehicle: saline with Tween-80
[14] = endpoint: mean survival time, dose: 400.0 mg/kg/injection, schedule: Q04DX002 (ip), vehicle: saline with Tween-80
[15] = endpoint: mean survival time, dose: 50.0 mg/kg/injection, schedule: Q01DX009 (ip), vehicle: saline with Tween-80

## ClC1=C(Cl)C2(Cl)C3C4CCC(C4)C3C1(Cl)C2(Cl)Cl (configuration not stated)
[1]
  T/C: 95 % of control and 107 % of control
[2]
  T/C: 93 % of control and 111 % of control
[3]
  T/C: 96 % of control and 105 % of control

## O=C(Nc1ccccc1C(=O)O)c1ccccc1
endpoint: mean survival time, dose: 25.0 mg/kg/injection, schedule: Q04DX003 (ip), vehicle: saline with Tween-80
  T/C: 106 % of control
endpoint: mean survival time, dose: 50.0 mg/kg/injection, schedule: Q04DX003 (ip), vehicle: saline with Tween-80
  T/C: 101 % of control
[4]
  T/C: 98 % of control and 101 % of control

## CN(C)C
[1]
  T/C: 103 % of control
[4]
  T/C: 102 % of control
[2]
  T/C: 101 % of control
[5]
  T/C: 105 % of control
[3]
  T/C: 105 % of control
[6]
  T/C: 104 % of control

## NC(=S)N/N=C/C(=O)c1ccc(Br)cc1
[7]
  T/C: 102 % of control
[8]
  T/C: 100 % of control

## O=C(NCCCCCCNC(=O)Nc1cccc(Cl)c1)Nc1cccc(Cl)c1
endpoint: mean survival time, dose: 50.0 mg/kg/injection, schedule: Q01DX009 (ip), vehicle: Klucel (hydroxypropylcellulose) (HPC)
  T/C: 94 % of control
endpoint: mean survival time, dose: 100.0 mg/kg/injection, schedule: Q01DX009 (ip), vehicle: Klucel (hydroxypropylcellulose) (HPC)
  T/C: 91 % of control
endpoint: mean survival time, dose: 200.0 mg/kg/injection, schedule: Q01DX009 (ip), vehicle: Klucel (hydroxypropylcellulose) (HPC)
  T/C: 88 % of control

## OC1CCCCC(O)CCCC1 (configuration not stated)
[9]
  T/C: 110 % of control
[10]
  T/C: 95 % of control
[11]
  T/C: 116 % of control
[12]
  T/C: 98 % of control
[13]
  T/C: 118 % of control
[14]
  T/C: 101 % of control

## CCSC1=NCCCS1
endpoint: mean survival time, dose: 75.0 mg/kg/injection, schedule: Q01DX001 (ip), vehicle: other
  T/C: 97 % of control
endpoint: mean survival time, dose: 150.0 mg/kg/injection, schedule: Q01DX001 (ip), vehicle: other
  T/C: 98 % of control
endpoint: mean survival time, dose: 300.0 mg/kg/injection, schedule: Q01DX001 (ip), vehicle: other
  T/C: 95 % of control

## Nc1cccc2c1C(=O)c1cccc(Cl)c1C2=O
[1]
  T/C: 95 % of control
[2]
  T/C: 106 % of control
[3]
  T/C: 109 % of control

## O=C(OCC1OCOC(COC(=O)c2ccccc2)C(O)C1O)c1ccccc1 (configuration not stated)
[4]
  T/C: 97 % of control
[5]
  T/C: 97 % of control
[6]
  T/C: 86 % of control

## NC(=O)OCC#CCN1CCCC1
endpoint: mean survival time, dose: 5.0 mg/kg/injection, schedule: Q01DX009 (ip), vehicle: saline with Tween-80
  T/C: 102 % of control
endpoint: mean survival time, dose: 10.0 mg/kg/injection, schedule: Q01DX009 (ip), vehicle: saline with Tween-80
  T/C: 103 % of control
endpoint: mean survival time, dose: 20.0 mg/kg/injection, schedule: Q01DX009 (ip), vehicle: saline with Tween-80
  T/C: 100 % of control

## O=C(Oc1ccn(C2OC(CO)C(O)C2O)c(=O)c1)C12CC3CC(CC(C3)C1)C2 (configuration not stated)
endpoint: median survival time, dose: 20.0 mg/kg/injection, schedule: Q01DX009 (ip), vehicle: saline + Tween-80 + alcohol
  T/C: 153 % of control
endpoint: median survival time, dose: 30.0 mg/kg/injection, schedule: Q01DX009 (ip), vehicle: saline + Tween-80 + alcohol
  T/C: 170 % of control
endpoint: median survival time, dose: 45.0 mg/kg/injection, schedule: Q01DX009 (ip), vehicle: saline + Tween-80 + alcohol
  T/C: 158 % of control

## O=c1ccn(C2OC(CO)C(O)C2C[N+](=O)[O-])c(=O)[nH]1 (configuration not stated)
endpoint: mean survival time, dose: 12.5 mg/kg/injection, schedule: Q01DX005 (ip), vehicle: water
  T/C: 96 % of control
endpoint: mean survival time, dose: 25.0 mg/kg/injection, schedule: Q01DX005 (ip), vehicle: water
  T/C: 97 % of control
endpoint: mean survival time, dose: 50.0 mg/kg/injection, schedule: Q01DX005 (ip), vehicle: water
  T/C: 94 % of control
endpoint: mean survival time, dose: 100.0 mg/kg/injection, schedule: Q01DX005 (ip), vehicle: water
  T/C: 91 % of control
endpoint: mean survival time, dose: 200.0 mg/kg/injection, schedule: Q01DX005 (ip), vehicle: water
  T/C: 88 % of control

## O=P(N1CCOCC1)(N1CC1)N1CC1
endpoint: mean survival time, dose: 1.56 mg/kg/injection, schedule: Q01DX009 (ip), vehicle: saline
  T/C: 103 % of control
endpoint: mean survival time, dose: 3.12 mg/kg/injection, schedule: Q01DX009 (ip), vehicle: saline
  T/C: 111 % of control
endpoint: mean survival time, dose: 12.5 mg/kg/injection, schedule: Q01DX009 (ip), vehicle: saline
  T/C: 180 % of control

## COc1cccc2c1C(=O)c1c(O)c3c(c(O)c1C2=O)CC(O)(C(=O)CO)CC3OC1CC(N)C(O)C(C)O1.[Cl][Pt+2][Cl].[NH2-].[NH2-] (configuration not stated)
endpoint: median survival time, dose: 4.0 mg/kg/injection, schedule: Q04DX003 (ip), vehicle: DMSO
  T/C: 152 % of control
endpoint: median survival time, dose: 8.0 mg/kg/injection, schedule: Q04DX003 (ip), vehicle: DMSO
  T/C: 153 % of control and 154 % of control

## O=c1cc(Nc2cccc(Cl)c2Cl)[nH]c(=O)[nH]1
[9]
  T/C: 93 % of control and 97 % of control
[10]
  T/C: 118 % of control and 91 % of control
[11]
  T/C: 97 % of control and 98 % of control
[12]
  T/C: 90 % of control and 92 % of control
[13]
  T/C: 95 % of control and 97 % of control
[14]
  T/C: 91 % of control and 100 % of control

## CC1CCC(C(C)C)/C(=N/NC(=O)CC#N)C1 (configuration not stated)
[7]
  T/C: 98 % of control
[8]
  T/C: 95 % of control

## Cc1cc(SC(=O)N(C)C)c(S(=O)(=O)F)cc1Cl
[10]
  T/C: 87 % of control
[12]
  T/C: 87 % of control
[14]
  T/C: 93 % of control

## Cc1ccc(S(=O)(=O)NN=C2CC3CCC(C2)S3)cc1
endpoint: mean survival time, dose: 37.5 mg/kg/injection, schedule: Q01DX001 (ip), vehicle: saline with Tween-80
  T/C: 101 % of control
endpoint: mean survival time, dose: 75.0 mg/kg/injection, schedule: Q01DX001 (ip), vehicle: saline with Tween-80
  T/C: 104 % of control
endpoint: mean survival time, dose: 150.0 mg/kg/injection, schedule: Q01DX001 (ip), vehicle: saline with Tween-80
  T/C: 106 % of control

## Cc1ccc(S(=O)(=O)OCC(O)C2OCOC3COCOC32)cc1 (configuration not stated)
endpoint: mean survival time, dose: 100.0 mg/kg/injection, schedule: Q01DX001 (ip), vehicle: Klucel (hydroxypropylcellulose) (HPC)
  T/C: 101 % of control
endpoint: mean survival time, dose: 200.0 mg/kg/injection, schedule: Q01DX001 (ip), vehicle: Klucel (hydroxypropylcellulose) (HPC)
  T/C: 103 % of control
endpoint: mean survival time, dose: 400.0 mg/kg/injection, schedule: Q01DX001 (ip), vehicle: Klucel (hydroxypropylcellulose) (HPC)
  T/C: 98 % of control
endpoint: mean survival time, dose: 600.0 mg/kg/injection, schedule: Q01DX001 (ip), vehicle: Klucel (hydroxypropylcellulose) (HPC)
  T/C: 93 % of control

## N#CC(=C1C=CC(=NO)C=C1)c1ccccc1
[15]
  T/C: 93 % of control
[1]
  T/C: 100 % of control
[4]
  T/C: 97 % of control
[2]
  T/C: 100 % of control
[5]
  T/C: 96 % of control

## CC(C)NCC(O)COc1cccc2ccccc12 (configuration not stated)
endpoint: mean survival time, dose: 4.0 mg/kg/injection, schedule: Q01DX009 (ip), vehicle: Klucel (hydroxypropylcellulose) (HPC)
  T/C: 94 % of control and 98 % of control and 103 % of control
endpoint: mean survival time, dose: 8.0 mg/kg/injection, schedule: Q01DX009 (ip), vehicle: Klucel (hydroxypropylcellulose) (HPC)
  T/C: 94 % of control and 95 % of control and 98 % of control
endpoint: mean survival time, dose: 16.0 mg/kg/injection, schedule: Q01DX009 (ip), vehicle: Klucel (hydroxypropylcellulose) (HPC)
  T/C: 91 % of control and 96 % of control and 101 % of control
endpoint: mean survival time, dose: 32.0 mg/kg/injection, schedule: Q01DX009 (ip), vehicle: Klucel (hydroxypropylcellulose) (HPC)
  T/C: 87 % of control and 93 % of control and 96 % of control
endpoint: mean survival time, dose: 64.0 mg/kg/injection, schedule: Q01DX009 (ip), vehicle: Klucel (hydroxypropylcellulose) (HPC)
  T/C: 84 % of control and 102 % of control and 105 % of control
endpoint: mean survival time, dose: 128.0 mg/kg/injection, schedule: Q01DX009 (ip), vehicle: Klucel (hydroxypropylcellulose) (HPC)
  T/C: 120 % of control

## CN(C)N=Nc1cccc(Cl)c1
endpoint: mean survival time, dose: 79.0 mg/kg/injection, schedule: Q01DX009 (ip), vehicle: Klucel (hydroxypropylcellulose) (HPC)
  T/C: 111 % of control
endpoint: mean survival time, dose: 118.0 mg/kg/injection, schedule: Q01DX009 (ip), vehicle: Klucel (hydroxypropylcellulose) (HPC)
  T/C: 108 % of control
endpoint: mean survival time, dose: 177.0 mg/kg/injection, schedule: Q01DX009 (ip), vehicle: Klucel (hydroxypropylcellulose) (HPC)
  T/C: 123 % of control
endpoint: mean survival time, dose: 266.0 mg/kg/injection, schedule: Q01DX009 (ip), vehicle: Klucel (hydroxypropylcellulose) (HPC)
  T/C: 108 % of control

## COc1ccc(C(=O)CC(C#N)c2ccc3c(c2)OCO3)cc1OC (configuration not stated)
[4]
  T/C: 93 % of control
[5]
  T/C: 91 % of control
[6]
  T/C: 93 % of control

## O=C(O)CC(Nc1sc([N+](=O)[O-])cc1[N+](=O)[O-])C(=O)O (configuration not stated)
[9]
  T/C: 98 % of control
[11]
  T/C: 105 % of control
[13]
  T/C: 102 % of control

## CC(C)OC(=O)Nc1ccc(F)c(C(F)(F)F)c1
[4]
  T/C: 96 % of control
[5]
  T/C: 96 % of control
[6]
  T/C: 94 % of control

## CC(=O)CSc1ncnc2nc[nH]c12
endpoint: mean survival time, dose: 62.5 mg/kg/injection, schedule: Q01DX015 (ip), vehicle: saline
  T/C: 118 % of control
endpoint: mean survival time, dose: 250.0 mg/kg/injection, schedule: Q01DX015 (ip), vehicle: saline
  T/C: 122 % of control
endpoint: mean survival time, dose: 1000.0 mg/kg/injection, schedule: Q01DX015 (ip), vehicle: saline
  T/C: 150 % of control

## CC(=O)OC1CCC(C(C)(C)C)CC1 (configuration not stated)
endpoint: mean survival time, dose: 100.0 mg/kg/injection, schedule: Q04DX003 (ip), vehicle: saline
  T/C: 102 % of control
endpoint: mean survival time, dose: 200.0 mg/kg/injection, schedule: Q04DX003 (ip), vehicle: saline
  T/C: 95 % of control
endpoint: mean survival time, dose: 400.0 mg/kg/injection, schedule: Q04DX003 (ip), vehicle: saline
  T/C: 96 % of control

## CC(=O)Nc1ncc2nc(C)c(C)nc2n1
[15]
  T/C: 98 % of control

Reference: PubChem BioAssay AID256 (DTP/NCI, 2004)
